Source: patent publication US10561115B2 (priority 2016, dated 2020)
“And” between values parts separate entries of the source, which are not always exact repeats. Equal values may be shown once.

How the values were obtained:
[1] = test system: propiconazole resistant mutants of Chlorella species (PcZ-1); experiment: Growth (OD at 750 nm) of PcZ-1 mutant with and without 10 μM propiconazole, compared with wild type; format: cell-based, Chlorella sorokiniana; details: for Average % increase PcZ-1 + 10 uM PcZ / % increase PcZ-1 + 10 μM PcZ: PcZ-1 with 10 μM propiconazole vs wild type without propiconazole; for % increase PcZ-1 + 10 μM PcZ: individual replicates, listed as PcZ
Experimental: (§1) Chlorella sorokiniana cells (Wild type) and propiconazole resistant mutants of Chlorella species (PcZ-1) were inoculated at 0.1-0.15 OD@750 nm (each set in triplicates). To verify the effect of methanol (propiconazole was dissolved in methanol), one set was treated with 0.1% methanol. One set of flasks in triplicate of Wild type and PcZ-1 mutants were inoculated with and without 10 μM propiconazole. After inoculation flasks were kept in 12 h light/12 hour dark cycles of white light in an incubator shaker at 100 rpm. The temperature was 28° C., 70% humidity and 2% ambient CO2. 3 mL sample was removed each day, to determine the Optical density (OD) of the culture at 750 nm. The results obtained are as illustrated in FIG. 1.
FIG. 1 illustrates a graph of the growth comparison between wild type Chlorella sorokiniana and propiconazole resistant mutants of Chlorella species Chlorella sorokiniana mutant PcZ-1, in the presence of propiconazole, wherein A represents wild type Chlorella sorokiniana grown in the absence of propiconazole, B represents wild type Chlorella sorokiniana grown in the presence of 0.1% methanol, C represents wild type Chlorella sorokiniana grown in the presence of 10 μM propiconazole, D represents PcZ-1 grown in the absence of propiconazole, E represents PcZ-1 grown in the presence of 0.1% methanol, and F represents PcZ-1 grown in the presence of 10 μM propiconazole. […] The propiconazole resistant mutants of Chlorella species (PcZ-1) was not affected by the presence of propiconazole, and continued to grow.

[2] = test system: wild type Chlorella sorokiniana; experiment: Growth (OD at 750 nm) of wild type Chlorella sorokiniana in the presence of propiconazole; format: cell-based; details: 10 μM propiconazole; culture typically crashes after a few days
Experimental: as §1
FIG. 1 illustrates a graph of the growth comparison between wild type Chlorella sorokiniana and propiconazole resistant mutants of Chlorella species Chlorella sorokiniana mutant PcZ-1, in the presence of propiconazole, wherein A represents wild type Chlorella sorokiniana grown in the absence of propiconazole, B represents wild type Chlorella sorokiniana grown in the presence of 0.1% methanol, C represents wild type Chlorella sorokiniana grown in the presence of 10 μM propiconazole, D represents PcZ-1 grown in the absence of propiconazole, E represents PcZ-1 grown in the presence of 0.1% methanol, and F represents PcZ-1 grown in the presence of 10 μM propiconazole. […]

grazers = details: general statement, no test described; cited from earlier work

For `CCCC1COC(Cn2cncn2)(c2ccc(Cl)cc2Cl)O1` (stereo not drawn) [propiconazole, Propiconazole], the “Growth of PcZ-1 in the presence of propiconazole” value ([1]; 10 μM propiconazole, continued to grow) was “not affected”, the “Average % increase PcZ-1 + 10 uM PcZ” value ([1]; day 4) was 60.2% and the “% increase PcZ-1 + 10 μM PcZ” value ([1]; day 4) was 45.5% and 66.7% and 68.6%. For the same compound, the “Average % increase PcZ-1 + 10 uM PcZ” value ([1]; day 6) was 27.1%, the “% increase PcZ-1 + 10 μM PcZ” value ([1]; day 6) was 17.3% and 38.7% and 25.4% and the “Average % increase PcZ-1 + 10 uM PcZ” value ([1]; day 7) was 21.1%. For the same compound, the “% increase PcZ-1 + 10 μM PcZ” value ([1]; day 7) was 10.6% and 29.4% and 23.2%, the “Growth of the wild type Chlorella sorokiniana in the presence of propiconazole” value [2] was “inhibited” and the “Concentration at which propiconazole is a potent grazicide” value (grazers) was ≥ 0.5 ppm.
